Test system: fatty tissue
Test: administration of solutions to fatty tissue in aesthetic treatment of cellulite by lipotomy
Assay type: in vivo
Conditions: added to solution of approximately from 20 to 90 mOsm/l

Compound	efficacy of a highly hypotonic lipotomy solution in the destruction of fatty tissue
O=C(O)Cc1cc(I)c(Oc2ccc(O)c(I)c2)c(I)c1 [tiratricol, triiodothyroacetic acid]	increased the efficacy
phosphatidylcholine	increased the efficacy

From patent US20060233893A1, “Aqueous solutions for the reduction of fatty tissue” (priority 2004, published 2006)
